Data as given in patent US20260168988A1, “GENETICALLY ENCODED REPORTER EXPRESSION SYSTEMS AND METHODS OF MAKING AND USING SAME” (Duke University, priority 2021, published 2026).
Entries after “also recorded” stand apart in the source; their conditions may differ.

Experiments:
Format in all cases: cell-based
NMD = assay: m6A reporter mRNA levels after blocking nonsense-mediated decay (RT-qPCR); details: HEK293T cells expressing the m6A sensor system, CHX for 24 h
Experimental: HEK293T cells expressing the m6A sensor system were treated with CHX for 24 h to inhibit NMD, followed by RT-qPCR of the m^6A reporter mRNA.
The possibility that the m^6A reporter mRNA could be susceptible to nonsense-mediated decay (NMD), since editing of the m6A reporter mRNA produces premature stop codons, was investigated. However, this is unlikely since most NMD requires the presence of the exon junction complex (EJC), and the m^6A reporter transcript lacks introns.

APO1-YTH = assay: Inducible APO1-YTH expression in HEK293T stable m6A reporter cell lines; details: time courses of dox induction
Description: HEK293T stable cells were generated which express both the m^6A reporter and APO1-YTH. The m^6A reporter was constitutively expressed from the CMV reporter, while APO1-YTH was inducibly expressed after treatment of cells with doxycycline (dox).
Cyclophilin A (CycloA) is shown as a loading control.
Another embodiment of the present disclosure provides stable cell lines that express the m^6A reporter system as provided herein. To do this, stable cell lines expressing both the m^6A reporter and APO1-YTH were generated by transfecting HEK293T cells with a dual-promoter plasmid encoding both components of the reporter system. This plasmid drives m^6A reporter expression from the CMV promoter and APO1-YTH expression using an inducible […] promoter. However, any dual-promoter system could also be used and different promoters (inducible and constitutive) could also be used with this m^6A reporter system. The m^6A reporter system provided herein may also be applied in other mammalian and non-mammalian cell types as well.
Following selection of stable cells with puromycin resistance which was conferred by genomic integration of the plasmid, it was next sought to confirm that the reporter system works in the context of stable integration of the m^6A reporter and APO1-YTH components. […]

METTL3 [1] = assay: m6A sensor system in METTL3 degron cells treated with auxin; details: METTL3 degron HEK293T cells, auxin 48 hours, compared to DMSO-treated cells
Experimental: To confirm that the m^6A sensor is METTL3-dependent, the m^6A sensor system was expressed in HEK293T cells which contain an auxin-inducible degradation tag at the endogenous METTL3 locus (METTL3 degron cells). Cells were treated with auxin for 48 hours and then transfected with the m^6A sensor system. […] Conversely, overexpression of METTL3 causes increased GFP fluorescence, a higher GFP:GFP-DHFR ratio, and increased C-to-U editing of the sensor sequence (FIGS. 5A-5C).

METTL3 [2] = target: T1, METTL3 (Homo sapiens, UniProt Q86U44); assay: m6A sensor system in HEK293T cells treated with METTL3 inhibitor; details: HEK293T cells expressing the m6A sensor system, after treatment
T1 construct: endogenous in cells; host or cells: HEK293T
T1 sequence (Q86U44 2-580 limits assumed): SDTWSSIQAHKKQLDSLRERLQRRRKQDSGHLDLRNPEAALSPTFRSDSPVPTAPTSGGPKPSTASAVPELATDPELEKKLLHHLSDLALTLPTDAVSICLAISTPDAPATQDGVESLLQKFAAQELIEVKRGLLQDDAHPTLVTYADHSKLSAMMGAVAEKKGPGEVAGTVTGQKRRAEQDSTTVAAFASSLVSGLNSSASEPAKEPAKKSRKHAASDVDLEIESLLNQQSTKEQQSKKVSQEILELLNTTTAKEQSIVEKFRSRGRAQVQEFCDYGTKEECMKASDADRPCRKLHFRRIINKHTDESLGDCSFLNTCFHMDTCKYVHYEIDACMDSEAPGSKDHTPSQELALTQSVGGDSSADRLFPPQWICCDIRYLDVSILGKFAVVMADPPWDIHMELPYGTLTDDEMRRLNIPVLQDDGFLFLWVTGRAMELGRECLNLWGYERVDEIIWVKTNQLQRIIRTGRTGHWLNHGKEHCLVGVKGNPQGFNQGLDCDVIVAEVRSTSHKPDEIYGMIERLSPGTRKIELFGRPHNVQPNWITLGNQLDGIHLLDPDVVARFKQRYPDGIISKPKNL
T1 sequence (Q9HCE5 whole entry partner): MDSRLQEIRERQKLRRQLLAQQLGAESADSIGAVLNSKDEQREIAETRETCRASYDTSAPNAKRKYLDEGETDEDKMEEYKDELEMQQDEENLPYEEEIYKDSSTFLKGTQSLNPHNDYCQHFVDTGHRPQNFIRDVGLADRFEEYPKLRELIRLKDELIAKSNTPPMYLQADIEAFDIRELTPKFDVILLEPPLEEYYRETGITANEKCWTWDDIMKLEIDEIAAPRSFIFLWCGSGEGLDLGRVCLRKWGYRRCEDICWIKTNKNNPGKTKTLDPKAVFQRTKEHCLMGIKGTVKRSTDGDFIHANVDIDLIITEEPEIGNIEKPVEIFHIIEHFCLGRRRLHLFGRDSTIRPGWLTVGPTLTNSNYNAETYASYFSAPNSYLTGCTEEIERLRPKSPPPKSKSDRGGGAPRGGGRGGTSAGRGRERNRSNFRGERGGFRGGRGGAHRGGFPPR

C[C@@H]1C[C@@H]([C@H](O)CC2CC(=O)NC(=O)C2)C(=O)[C@@H](C)C1 [cycloheximide]
levels of the m6A reporter mRNA (RT-qPCR) (NMD): did not cause changes

C[C@H]1c2cccc(O)c2C(=O)C2=C(O)[C@]3(O)C(=O)C(C(N)=O)=C(O)[C@@H](N(C)C)[C@@H]3[C@@H](O)[C@@H]21 [doxycycline]
duration of dox treatment sufficient for APO1-YTH induction and EGFP fluorescence (APO1-YTH): 24 h

O=C(O)Cc1c[nH]c2ccccc12 [auxin]
C-to-U editing of the m6A sensor sequence (RT-PCR/Sanger sequencing) (METTL3 [1]): decreased C-to-U editing
GFP:GFP-DHFR ratio (western blot) (METTL3 [1]): reduced GFP:GFP-DHFR ratio
C-to-U editing of the m6A sensor sequence (RT-PCR/Sanger sequencing) (METTL3 [1]; listed as Auxin): reduced C-to-U editing
GFP fluorescence of m6A sensor (METTL3 [1]; then transfected, assessed 24 hours later): greatly diminished; also recorded: reduced m^6A sensor fluorescence

STM2457
C-to-U editing of the m6A sensor sequence (RT-PCR/Sanger sequencing) (METTL3 [2]): lower levels of C-to-U editing; also recorded: reduced C-to-U editing
GFP fluorescence of m6A sensor system (METTL3 [2]): reduces GFP fluorescence
GFP protein (Western blot) (METTL3 [2]): reduced GFP protein; also recorded: reduction of GFP expression
